{"source": "patent US8614227B2", "about": "“Salt and solvates of a tetrahydroisoquinoline derivative” (Spinifex Pharmaceuticals Pty Ltd, priority 2010, dated 2013)", "key": {"[1]": {"test": "Compound 2 solubility in solvents and buffers (saturated, 24 h shaking, HPLC)", "format": "physicochemical", "conditions": "for solubility at 24 h: thermodynamic from solid", "protocol": "Solubility of Compound 2 in a solvent, selected from water, methanol, acetonitrile (ACN) and iso-propanol and in 50 mM phosphate buffer at pH 1, 2, 7 and 8, 50 mM citrate buffer at pH 3, 4, 5 and 6 and in 50 mM borate buffer at pH 9 was assessed. Compound 2 was added to 10 mL of the solvent or buffer until the solution was visibly saturated and remained cloudy upon vortex mixing. Each sample was placed on a reciprocal shaker at room temperature for 24 hours then filtered through a 0.45 μm nylon filter to remove excess suspended compound. The samples were then diluted where required in accordance with Table 24, and analyzed by HPLC. The results were compared with a standard curve of known concentrations in ACN."}, "[2]": {"test": "Dissolution comparison of solid sodium salt forms in capsules", "format": "physicochemical", "protocol": "Dissolution of three forms of solid sodium salt were analyzed, a monosodium trihydrate (Compound 6), a monosodium salt dihydrate (Compound 7) and amorphous Compound 2.\nThe crystalline material was made by exposing amorphous Compound 2 to ambient temperature/75% RH for 24 hrs. These conditions were created using a saturated sodium chloride solution sealed in a desiccant chamber. Once the crystalline material had been created it was collected and stored at 2-8° C. until dissolution testing took place. Two samples for dissolution were prepared by weighing 25 mg±1 mg into size 00 white opaque gelatin capsules.\nCrystalline Compound 7 dihydrate was made by placing a sample of the iso-propanol solvate of Compound 2 at ambient temperature and humidity conditions for 2 weeks. The iso-propanol solvate of Compound 2 readily converts to the dihydrate. Once Compound 7 had been prepared, it was collected and stored at 2-8° C. until dissolution testing was conducted. Two samples for dissolution were prepared by weighing 25 mg±1 mg into size 00 white opaque gelatin capsules.\nTwo samples for dissolution were prepared by weighing 25 mg±1 mg of amorphous Compound 2 into size 00 white opaque gelatin capsules.\nThe dissolution materials and parameters are set out in Table 33. At each pull time ˜6 mL of media was removed from each vessel and filtered through a 0.45 μm nylon filter. The first 5 mL of solution was discarded and the final 1 mL was collected in a UPLC vial for analysis."}, "[3]": {"test": "Bulk density, tap density, powder flow, particle size and milling feasibility of Compound 2", "format": "physicochemical", "conditions": "for Tap Density: Autotap 100 cycles", "protocol": "Compound 2 particle size distribution was determined by sieve screen analysis. A sample of Compound 2 was passed through a series of sieves, which included a 53, 106, 250, 500, 710, and 1000 μm mesh screen. Each screen was weighed before and after the sieving occurred to determine the amount of compound at each particle size.\nThe powder flow was determined on a FlowDex apparatus.\nBulk density was determined by filling a tared 100 mL graduated cylinder with Compound 2. The volume and weight of Compound 2 added was recorded and used to calculate its bulk density. Tap density was then determined by taking the same graduated cylinder filled with Compound 2 and placing it on an Autotap set for 100 cycles. The new powder volume was recorded and used to calculate the tap density.\n24.73 mg of Compound 2 was weighed directly into a tared 25 mL volumetric flask. The flask was diluted to volume with ACN and inverted to mix. A sample was taken to determine the % purity (% area) of the drug before milling took place. Milling was performed by taking 17.92 g of Compound 2 and passing this material it through a conical mill with an 1143 μm screen. 14.33 g of Compound 2 was recovered and re-analyzed for particle size distribution, bulk density, and tap density. 24.93 mg of milled Compound 2 was weighed directly into a tared 25 mL volumetric flask. The flask was diluted to volume with ACN and inverted to mix. This sample was taken to determine the % purity (% area) after Compound 2 had been milled.\nAfter Compound 2 had been milled it was blended with 2.5% w/w of colloidal silicon dioxide, Cab-O-Sil®, on a T2 Turbula blender for 2 minutes. The blended powder was collected and its flow properties were analyzed on a FlowDex apparatus."}, "[4]": {"conditions": "dog, in vivo, po, 10 mg/kg", "description": "The study was designed to compare the PK profiles of the following four forms of Compound 1 administered as single oral capsules in fasted state. […] There was a washout period of 4 days between dosing. The blood samples were collected from each animal at predetermined times on the study Days 1, 4, 8 and 11. The plasma was analyzed for Compound 1 by a validated HPLC-MS/MS assay.\nDescriptive PK parameters were determined by standard model independent methods (Gibaldi and Perrier, 1982) based on the individual plasma concentration-time data. Plasma concentrations were rounded to 3 significant figures. Plasma samples with concentrations below the quantifiable assay limit (BQL<2.00 ng/mL) were assigned values of zero for mean calculations. For PK calculations, BQL was set to zero from the pre-dose time up to the time of the first quantifiable concentration and thereafter was set as missing. Nominal time points were used for all calculations. • Cmax is the observed maximum plasma concentration after dosing. • Tmax is the time to reach Cmax. • T1/2 is apparent half-life calculated by ln(2)/λ where λ is the rate constant fix the log-linear portion of the terminal phase. A minimum of three values in the post-distribution phase of the plasma concentration-time curve is required for calculation of X. • AUC(0-T) is the area under the plasma concentration-time curve from time zero to the time of the last measurable plasma concentration determined using the linear trapezoidal rule. • AUC(0-inf) is the area under the plasma concentration-time curve from time zero to infinity. It is calculated by summing AUC(0-T) and the extrapolated area from the T to infinity.\nPK analyses were performed by noncompartmental analysis using model 200 in WinNonlin Professional 6.1 (Pharsight Corp., Mountain View, Calif.)."}, "[5]": {"test": "Compound 2 solubility in solvents and buffers (saturated, 24 h shaking, HPLC)", "format": "physicochemical", "conditions": "50 mM phosphate buffer, aqueous buffer, thermodynamic from solid; pH 3 buffer (phosphate, 50 mM)"}}, "note": "Where two headings read alike, the source gives them in different places.", "data": [{"compound": "COc1ccc2c(c1OCc1ccccc1)C[C@@H](C(=O)[O-])N(C(=O)C(c1ccccc1)c1ccccc1)C2.[Na+]", "note": "[Compound 2, sodium salt of (S)-2-(diphenylacetyl)-1,2,3,4-tetrahydro-6-methoxy-5-(phenylmethoxy)-3-isoquinoline carboxylic acid]", "values": [{"measurement": "solubility at 24 h", "setting": "[1]; 50 mM borate buffer, aqueous buffer, pH 9 buffer (borate, 50 mM)", "value": 5300, "unit": "µg/mL"}, {"measurement": "solubility at 24 h", "setting": "[1]; 50 mM citrate buffer, aqueous buffer, pH 4 buffer (citrate, 50 mM)", "value": "< 1", "unit": "µg/mL"}, {"measurement": "solubility at 24 h", "setting": "[1]; 50 mM citrate buffer, aqueous buffer, pH 5 buffer (citrate, 50 mM)", "value": 33, "unit": "µg/mL"}, {"measurement": "solubility at 24 h", "setting": "[1]; 50 mM citrate buffer, aqueous buffer, pH 6 buffer (citrate, 50 mM)", "value": 900, "unit": "µg/mL"}, {"measurement": "solubility at 24 h", "setting": "[1]; 50 mM phosphate buffer, aqueous buffer, pH 1 buffer (phosphate, 50 mM), room temperature 24 h", "value": "< 1", "unit": "µg/mL"}, {"measurement": "solubility at 24 h", "setting": "[1]; 50 mM phosphate buffer, aqueous buffer, pH 2 buffer (phosphate, 50 mM)", "value": "< 1", "unit": "µg/mL"}, {"measurement": "solubility at 24 h", "setting": "[1]; 50 mM phosphate buffer, aqueous buffer, pH 7 buffer (phosphate, 50 mM)", "value": 1700, "unit": "µg/mL"}, {"measurement": "solubility at 24 h", "setting": "[1]; 50 mM phosphate buffer, aqueous buffer, pH 8 buffer (phosphate, 50 mM)", "value": 1600, "unit": "µg/mL"}, {"measurement": "Solubility", "setting": "[1]; Methanol", "value": ">50000", "unit": "µg/mL"}, {"measurement": "solubility at 24 h", "setting": "[1]; acetonitrile, organic solvent or mixture", "value": 12000, "unit": "µg/mL"}, {"measurement": "solubility at 24 h", "setting": "[1]; iso-propanol, organic solvent or mixture, IPA", "value": 700, "unit": "µg/mL"}, {"measurement": "solubility at 24 h", "setting": "[1]; methanol, organic solvent or mixture", "value": "> 50000", "unit": "µg/mL"}, {"measurement": "solubility at 24 h", "setting": "[1]; water", "value": 14000, "unit": "µg/mL"}, {"measurement": "% Dissolution", "setting": "[2]; 15 mins, 25 mg in gelatin capsule, pH 6.8 phosphate buffer 900 mL, 37° C., 50 RPM", "value": 77.8, "unit": "%"}, {"measurement": "% Dissolution", "setting": "[2]; 30 mins, pH 6.8 phosphate buffer, 50 RPM", "value": 83.6, "unit": "%"}, {"measurement": "% Dissolution", "setting": "[2]; 45 mins, pH 6.8 phosphate buffer, 50 RPM", "value": 86.3, "unit": "%"}, {"measurement": "% Dissolution", "setting": "[2]; 60 mins, pH 6.8 phosphate buffer, 50 RPM", "value": 88.8, "unit": "%"}, {"measurement": "% Dissolution", "setting": "[2]; 120 mins, pH 6.8 phosphate buffer, 150 RPM for 2nd hour", "value": 92.9, "unit": "%"}, {"measurement": "dissolution rate (comparison of forms)", "setting": "[2]; pH 6.8 phosphate buffer, capsules", "value": "dissolved considerably faster"}, {"measurement": "average particle size", "setting": "[3]; after milling", "value": "~560", "unit": "μm"}, {"measurement": "% Purity with milling", "setting": "[3]; before vs after milling", "value": "% Purity of Compound 2 sample did not change with milling."}, {"measurement": "powder flow (FlowDex)", "setting": "[3]; bulk unmilled", "value": "unable to pass through the largest available, 34 mm, orifice"}, {"measurement": "average particle size", "setting": "[3]; bulk, before milling", "value": "~775", "unit": "μm"}, {"measurement": "Bulk Density", "setting": "[3]; milled (conical mill, 1143 μm screen)", "value": 0.073, "unit": "g/mL"}, {"measurement": "Tap Density", "setting": "[3]; milled", "value": 0.098, "unit": "g/mL"}, {"measurement": "powder flow (FlowDex)", "setting": "[3]; milled, blended with 2.5% w/w colloidal silicon dioxide", "value": "passed through a 34 mm orifice but failed to pass through a 32 mm orifice"}, {"measurement": "Bulk Density", "setting": "[3]; unmilled", "value": 0.089, "unit": "g/mL"}, {"measurement": "Tap Density", "setting": "[3]; unmilled", "value": 0.114, "unit": "g/mL"}, {"measurement": "Plasma concentration of Compound 1, 0.25 h", "setting": "[4]", "value": "BQL"}, {"measurement": "Plasma concentration of Compound 1, 0.5 h", "setting": "[4]", "value": "BQL"}, {"measurement": "Plasma concentration of Compound 1, 24 h", "setting": "[4]", "value": "BQL"}, {"measurement": "Plasma concentration of Compound 1, Predose", "setting": "[4]", "value": "BQL"}, {"measurement": "Plasma concentration of Compound 1, Predose", "setting": "[4]; male, beagle", "value": 0.00, "unit": "ng/mL"}, {"measurement": "solubility at 24 h", "setting": "[5]", "value": "< 1", "unit": "µg/mL"}]}]}
